Values quoted from earlier work as cited in patent publication US8394592B2, “Methods for assessing cancer susceptibility to carcinogens in tobacco products” (The Board of Regents of the University of Texas System, priority 2006, dated 2013).

Tested on: Salmonella
Settings: Ames Salmonella assay; cited from earlier work

CN(CCCC(=O)c1cccnc1)N=O [NNK, 4-(methylnitrosamino)-1-(3-pyridyl)-1-butanone]
mutagenicity: potent mutagen
